#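 A five-concentration, 48-hour dose response in 96-well plates underlies each endpoint, interpolated linearly between surrounding concentrations. TGI marks complete inhibition of growth.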
# How the values were obtained:
# Assay in all cases: growth of human tumour cells (NCI), 48 h
# 786-0 renal = test system: 786-0 renal
# A498 renal = test system: A498 renal
# A549 NSCLC = test system: A549 NSCLC
# ACHN renal = test system: ACHN renal
# CAKI-1 renal = test system: CAKI-1 renal
# CCRF-CEM leukemia = test system: CCRF-CEM leukemia
# COLO 205 colon = test system: COLO 205 colon
# DLD-1 colon = test system: DLD-1 colon
# DMS 114 small cell lung = test system: DMS 114 small cell lung
# DMS 273 small cell lung = test system: DMS 273 small cell lung
# EKVX NSCLC = test system: EKVX NSCLC
# HCC-2998 colon = test system: HCC-2998 colon
# HCT-116 colon = test system: HCT-116 colon
# HCT-15 colon = test system: HCT-15 colon
# HL-60(TB) leukemia = test system: HL-60(TB) leukemia
# HOP-18 NSCLC = test system: HOP-18 NSCLC
# HOP-62 NSCLC = test system: HOP-62 NSCLC
# HOP-92 NSCLC = test system: HOP-92 NSCLC
# HT29 colon = test system: HT29 colon
# IGROV1 ovarian = test system: IGROV1 ovarian
# K-562 leukemia = test system: K-562 leukemia
# KM12 colon = test system: KM12 colon
# KM20L2 colon = test system: KM20L2 colon
# LOX IMVI melanoma = test system: LOX IMVI melanoma
# LXFL 529 NSCLC = test system: LXFL 529 NSCLC
# M14 melanoma = test system: M14 melanoma
# M19-MEL melanoma = test system: M19-MEL melanoma
# MALME-3M melanoma = test system: MALME-3M melanoma
# MOLT-4 leukemia = test system: MOLT-4 leukemia
# NCI-H226 lung = test system: NCI-H226 lung
# NCI-H23 lung = test system: NCI-H23 lung
# NCI-H460 lung = test system: NCI-H460 lung
# NCI-H522 lung = test system: NCI-H522 lung
# OVCAR-3 ovarian = test system: OVCAR-3 ovarian
# OVCAR-4 ovarian = test system: OVCAR-4 ovarian
# OVCAR-5 ovarian = test system: OVCAR-5 ovarian
# OVCAR-8 ovarian = test system: OVCAR-8 ovarian
# RPMI-8226 leukemia = test system: RPMI-8226 leukemia
# RXF 393 renal = test system: RXF 393 renal
# SF-268 CNS = test system: SF-268 CNS
# SF-295 CNS = test system: SF-295 CNS
# SF-539 CNS = test system: SF-539 CNS
# SK-MEL-2 melanoma = test system: SK-MEL-2 melanoma
# SK-MEL-28 melanoma = test system: SK-MEL-28 melanoma
# SK-MEL-5 melanoma = test system: SK-MEL-5 melanoma
# SK-OV-3 ovarian = test system: SK-OV-3 ovarian
# SN12C renal = test system: SN12C renal
# SNB-19 CNS = test system: SNB-19 CNS
# SNB-75 CNS = test system: SNB-75 CNS
# SNB-78 CNS = test system: SNB-78 CNS
# SR leukemia = test system: SR leukemia
# SW-620 colon = test system: SW-620 colon
# TK-10 renal = test system: TK-10 renal
# U251 CNS = test system: U251 CNS
# UACC-257 melanoma = test system: UACC-257 melanoma
# UACC-62 melanoma = test system: UACC-62 melanoma
# UO-31 renal = test system: UO-31 renal
# XF 498 CNS = test system: XF 498 CNS
structure (smiles),measurement,setting,value
CN(C)CCN(C)CCC(=O)/C=C/c1ccccc1,TGI,786-0 renal,29.9 µM
same,TGI,A498 renal,> 100 µM
same,TGI,A549 NSCLC,> 100 µM
same,TGI,ACHN renal,> 69.9 µM
same,TGI,CAKI-1 renal,49.9 µM
same,TGI,CCRF-CEM leukemia,23 µM
same,TGI,COLO 205 colon,36 µM
same,TGI,DLD-1 colon,39.9 µM
same,TGI,DMS 114 small cell lung,> 66.3 µM
same,TGI,DMS 273 small cell lung,34 µM
same,TGI,EKVX NSCLC,> 93.8 µM
same,TGI,HCC-2998 colon,> 69.6 µM
same,TGI,HCT-116 colon,31.4 µM
same,TGI,HCT-15 colon,50.1 µM
same,TGI,HL-60(TB) leukemia,53.5 µM
same,TGI,HOP-18 NSCLC,> 100 µM
same,TGI,HOP-62 NSCLC,> 100 µM
same,TGI,HOP-92 NSCLC,56.9 µM
same,TGI,HT29 colon,41.2 µM
same,TGI,IGROV1 ovarian,> 68.2 µM
same,TGI,K-562 leukemia,> 52.8 µM
same,TGI,KM12 colon,52.5 µM
same,TGI,KM20L2 colon,> 100 µM
same,TGI,LOX IMVI melanoma,> 100 µM
same,TGI,LXFL 529 NSCLC,32.6 µM
same,TGI,M14 melanoma,40.6 µM
same,TGI,M19-MEL melanoma,40.9 µM
same,TGI,MALME-3M melanoma,35.6 µM
same,TGI,MOLT-4 leukemia,27.2 µM
same,TGI,NCI-H226 lung,> 88.7 µM
same,TGI,NCI-H23 lung,> 61.1 µM
same,TGI,NCI-H460 lung,> 100 µM
same,TGI,NCI-H522 lung,9.64 µM
same,TGI,OVCAR-3 ovarian,> 61.4 µM
same,TGI,OVCAR-4 ovarian,> 61.2 µM
same,TGI,OVCAR-5 ovarian,> 100 µM
same,TGI,OVCAR-8 ovarian,47.1 µM
same,TGI,RPMI-8226 leukemia,6.54 µM
same,TGI,RXF 393 renal,45.3 µM
same,TGI,SF-268 CNS,> 94.5 µM
same,TGI,SF-295 CNS,> 58.4 µM
same,TGI,SF-539 CNS,39.6 µM
same,TGI,SK-MEL-2 melanoma,> 74.6 µM
same,TGI,SK-MEL-28 melanoma,43.6 µM
same,TGI,SK-MEL-5 melanoma,> 62.1 µM
same,TGI,SK-OV-3 ovarian,> 100 µM
same,TGI,SN12C renal,48.5 µM
same,TGI,SNB-19 CNS,> 100 µM
same,TGI,SNB-75 CNS,> 60.8 µM
same,TGI,SNB-78 CNS,> 77.6 µM
same,TGI,SR leukemia,27.3 µM
same,TGI,SW-620 colon,37.7 µM
same,TGI,TK-10 renal,> 63.9 µM
same,TGI,U251 CNS,> 100 µM
same,TGI,UACC-257 melanoma,51.4 µM
same,TGI,UACC-62 melanoma,71.4 µM
same,TGI,UO-31 renal,> 100 µM
same,TGI,XF 498 CNS,49.6 µM

# — PubChem BioAssay (NCI)
